Consider twelve molecules from ChEMBL document CHEMBL1201862, “PubChem BioAssay data set” (2004).

What all share (assay): NCI-60 cell line screen, 48 h
The subject of assay [1] is ACHN.
Assay [2] relates to EKVX.
The subject of assay [3] is HCT-15.
Assay [4] relates to HT-29.
The test system of assay [5] is K562.
In assay [6] the test system is LOX IMVI.
The subject of assay [7] is M14.
Assay [8] relates to NCI-H460.
Assay [9] relates to NCI-H522.
The subject of assay [10] is OVCAR-3.
Assay [11] has as its system OVCAR-8.
For assay [12], the system named is RPMI-8226.
Assay [13] deals with SF-539.
Assay [14] deals with SK-MEL-28.
Assay [15] has as its system SK-OV-3.
Assay [16] deals with SNB-75.
The subject of assay [17] is SR.
For assay [18], the system named is CAKI-1.

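Method: 48-hour compound exposure of cells in 96-well plates, five concentrations, linear interpolation of endpoints. GI50: concentration for 50% inhibition of growth.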 Active and inactive are the calls of the source. Cut-off read from the data, not from the text of the source: active = GI50 up to about 1.1 µM and inactive = higher. Some results are limits rather than exact numbers.

Consider `CN(C)CC/C(=N\Nc1c(Cl)cccc1Cl)c1ccccc1`, for which the GI50 in assay [1] is 16 µM (inactive); in assay [2], 30.3 µM (inactive); in assay [3], 17.7 µM; in assay [4], 15.8 µM (inactive); in assay [5] it was 20.6 µM (inactive); in [6] it was 17.3 µM (inactive). Moreover, the GI50 was 18.2 µM (inactive) in [7]; 16.3 µM (inactive) in assay [8]; 17.5 µM (inactive) in assay [9]; 22.8 µM (inactive) in assay [10]; 16.9 µM (inactive) in assay [11]; 17.2 µM (inactive) in assay [12]. Moreover, the GI50 in [13] was 16.9 µM (inactive); in [14] it was 19.2 µM (inactive); in [15] it was 22.5 µM (inactive); in assay [16], 15.2 µM (inactive); in assay [17] it was 21.5 µM (inactive).
On to `O=c1oc2c3ccc4ccccc4c3n(Cc3nc4ccccc4[nH]3)c2c2ccccc12`, for which the GI50 in assay [1] is 3.89 µM (inactive); in [18], 3.77 µM (inactive); in assay [2], 23.6 µM (inactive); in [3], 1.37 µM; in assay [4], 4.48 µM (inactive); in [5], 2.47 µM (inactive). The GI50 in assay [6] was 2.26 µM (inactive); in [7] it was 4.71 µM (inactive); in [8], 0.518 µM (active); in [9], 4.42 µM (inactive); in assay [10], 7.08 µM (inactive); in assay [11], 13.7 µM (inactive). Further, the GI50 in [12] was 3.48 µM (inactive); in assay [13], 3.54 µM (inactive); in [14], > 26.7 µM (inactive); in [15] it was > 100 µM (inactive); in [16], 5.51 µM (inactive); in [17], 0.791 µM (active).
With `Cc1cc(NS(=O)(=O)c2ccc(NC(=O)c3cccc4c(=O)c5ccccc5[nH]c34)cc2)no1`, the GI50 in assay [1] was 65.6 µM (inactive); in assay [18], 65.8 µM (inactive); in assay [2], 43.6 µM (inactive); in assay [3] it was 66.7 µM; in [4], 43.1 µM (inactive); in assay [5], 36.1 µM (inactive). Moreover, the GI50 was 31.4 µM (inactive) in [6]; 93.3 µM (inactive) in assay [8]; 14.2 µM (inactive) in [9]; 29.4 µM (inactive) in assay [10]; 12.5 µM (inactive) in assay [11]; 33.8 µM (inactive) in [12]. The GI50 in assay [13] is 28.9 µM (inactive); in [14], 41.2 µM (inactive); in [15], 14.9 µM (inactive); in assay [16], 23.1 µM (inactive); in assay [17], 28.2 µM (inactive).
Take `CCCCN/C(=N/C#N)NCc1ccccc1`: the GI50 in [1] was > 100 µM (inactive); in [18] it was > 100 µM (inactive); in [2], > 100 µM (inactive); in assay [3] it was greater than 100 µM; in assay [4], > 100 µM (inactive); in assay [6], > 100 µM (inactive). The GI50 in [7], in assay [8], in [9], in assay [10], in assay [11] and in assay [12] was > 100 µM (inactive) in each case. Besides, the GI50 in assay [13] is > 100 µM (inactive); in assay [14], > 100 µM (inactive); in [15], > 100 µM (inactive); in [16], 42.8 µM (inactive); in assay [17] it was > 100 µM (inactive).
Regarding `O=C1CCC2CCOc3ccc(O)c1c32` (stereo unspecified), the GI50 in assay [1] is > 100 µM (inactive); in assay [2], > 100 µM (inactive); in assay [3], greater than 100 µM; in assay [4], > 100 µM (inactive); in assay [5], > 100 µM (inactive); in assay [7], > 100 µM (inactive). In addition, the GI50 in [8], in [9], in [10], in assay [11], in [12] and in assay [13] was > 100 µM (inactive) in each case. Further, the GI50 in assay [14], in assay [15], in assay [16] and in [17] was > 100 µM (inactive) throughout.
Consider `O=C(O)CC1CC=C[C@H]2c3cc4c(cc3C(=O)NC12)OCO4` (stereo partly specified), for which the GI50 is > 75 µM (inactive) in assay [1]; > 75 µM (inactive) in [2]; greater than 75 µM in assay [3]; > 75 µM (inactive) in assay [5]; > 75 µM (inactive) in [6]; > 75 µM (inactive) in [7]. Further, the GI50 in assay [8], in assay [9], in assay [10], in assay [11], in [12] and in assay [13] was > 75 µM (inactive) each time. Moreover, the GI50 in [14], in assay [15], in assay [16] and in assay [17] was > 75 µM (inactive) each time.
For the molecule `C(/COc1cccnc1)=N\NC1=NCCN1`, the GI50 in [1] was > 100 µM (inactive); in [18], > 100 µM (inactive); in [2], > 100 µM (inactive); in assay [3], greater than 100 µM; in assay [4], > 100 µM (inactive); in assay [5] it was > 100 µM (inactive). Also, the GI50 in [6], in [7], in assay [8], in [9], in [10] and in [11] was > 100 µM (inactive) in each case. Also, the GI50 in assay [12], in assay [13], in assay [14], in [15], in assay [16] and in [17] was > 100 µM (inactive) throughout.
Regarding `CCOC(=O)C(=O)Nc1nc2c(s1)C(=O)c1ccccc1C2=O`, the GI50 in assay [1] was 14.9 µM (inactive); in [18] it was 18.5 µM (inactive); in assay [2] it was 16.1 µM (inactive); in assay [3], 15.6 µM; in assay [4], 14.4 µM (inactive); in [5], 6.03 µM (inactive). The GI50 in assay [7] is 15.7 µM (inactive); in assay [8], 19.2 µM (inactive); in assay [9], 14.9 µM (inactive); in [10], 5.62 µM (inactive); in assay [11], 10.6 µM (inactive); in assay [12] it was 4.74 µM (inactive). Also, the GI50 is 17.7 µM (inactive) in assay [13]; 14.3 µM (inactive) in [14]; > 10 µM (inactive) in assay [15]; 16.2 µM (inactive) in [16]; 3.43 µM (inactive) in assay [17].
Consider `COC(=O)C1=C(C)C(=O)C2(CCCCCC2C(=O)OC)C1` (stereo unspecified), for which the GI50 in assay [1] was > 100 µM (inactive); in [18], > 100 µM (inactive); in [2], > 100 µM (inactive); in assay [3] it was greater than 100 µM; in assay [4] it was > 100 µM (inactive); in assay [5], > 100 µM (inactive). The GI50 in [7] is > 100 µM (inactive); in assay [8], > 100 µM (inactive); in assay [9] it was 65.2 µM (inactive); in assay [11], > 100 µM (inactive); in [12], > 100 µM (inactive); in assay [13], 63.7 µM (inactive). The GI50 in assay [14], in assay [15], in assay [16] and in [17] was > 100 µM (inactive) each time.
As for `COc1cc(O)c(C(=O)/C=C/c2ccc(OC)c(OCc3ccccc3)c2)c(OC)c1`, the GI50 in assay [1] was 5.58 µM (inactive); in assay [18] it was > 100 µM (inactive); in assay [2] it was > 100 µM (inactive); in assay [3], 10.3 µM; in assay [4], > 100 µM (inactive); in assay [5] it was 5.93 µM (inactive). In addition, the GI50 is 33.7 µM (inactive) in assay [6]; > 100 µM (inactive) in assay [7]; > 100 µM (inactive) in assay [8]; 7.46 µM (inactive) in [9]; 38.5 µM (inactive) in assay [10]; 6.84 µM (inactive) in assay [11]. In addition, the GI50 in assay [12] is 5.86 µM (inactive); in [13], > 100 µM (inactive); in [15], > 100 µM (inactive); in [16], 22.1 µM (inactive); in assay [17], 4.08 µM (inactive).
As to `CC1=CC(=O)C(=O)C2=C1OC1(C2)C(C)CCC2C3(C)CCC(O)C(C)(C)C3CCC21C` (stereo unspecified), the GI50 is 16.9 µM (inactive) in assay [1]; 17.5 µM (inactive) in assay [18]; 19.4 µM in assay [3]; 20.6 µM (inactive) in assay [4]; 17 µM (inactive) in assay [5]; 16.7 µM (inactive) in assay [6]. Further, the GI50 in [7] is 18.8 µM (inactive); in assay [8], 17.5 µM (inactive); in assay [9] it was 15.2 µM (inactive); in assay [10] it was 18.6 µM (inactive); in [11] it was 19.5 µM (inactive); in assay [12] it was 23.6 µM (inactive). For the same molecule, the GI50 in assay [13] is > 100 µM (inactive); in assay [14], 20.5 µM (inactive); in assay [15], 29 µM (inactive); in assay [16], 48.4 µM (inactive); in [17] it was 23.8 µM (inactive).
On to `O=c1cc(-c2ccc(O)cc2)oc2cc(O)cc(O)c12` [APIGENIN], for which the GI50 in assay [1] was 15.1 µM (inactive); in assay [2], 33.5 µM (inactive); in assay [3] it was 28.1 µM; in assay [5] it was 32.7 µM (inactive); in [6], 21.4 µM (inactive); in assay [7] it was 44.4 µM (inactive). The GI50 in [8] is 31.4 µM (inactive); in assay [9] it was 15.8 µM (inactive); in assay [10] it was 24.2 µM (inactive); in assay [12], 37.7 µM (inactive); in assay [13], > 10 µM (inactive); in assay [14] it was 20.3 µM (inactive). The GI50 is 34.9 µM (inactive) in assay [15], 21.6 µM (inactive) in assay [16] and 33.6 µM (inactive) in [17].
